The nature of series [1]: Half life in C57BL/6 mouse pneumonia model at 30 mg/kg, im. In kind it is ADME, organism-based. The arrangement: dose 30 mg/kg, route intramuscular. The note with it: in vivo.
Series [2] in a line: AUC in New Zealand rabbit meningitis model at 120 mg/kg, im. In kind it is ADME, organism-based, Oryctolagus cuniculus. The note with it: in vivo. Details: dose 120 mg/kg, route intramuscular.
Series [3] is described as follows: AUC in C57BL/6 mouse pneumonia model at 30 mg/kg, im. The arrangement: dose 30 mg/kg, route intramuscular. Conditions: in vivo. In kind it is ADME, organism-based.
A short description of series [4]: Cmax in C57BL/6 mouse pneumonia model at 30 mg/kg, im. The note with it: in vivo. The format is ADME, organism-based. The arrangement: dose 30 mg/kg, route intramuscular.
A short description of series [5]: Half life in New Zealand rabbit meningitis model at 120 mg/kg, im. Details: dose 120 mg/kg, route intramuscular. The format is ADME, organism-based, Oryctolagus cuniculus. The note with it: in vivo.
A further series can be described thus: in vivo. Conditions: New Zealand, rabbit, im, 120 mg/kg.
Series [6] relates to Acinetobacter baumannii. The series can be described thus: Antimicrobial activity against Acinetobacter baumannii. In kind it is functional, organism-based.
The nature of series [7]: Ratio of AUC to MIC for Acinetobacter baumannii 1327 in pharmacokinetic-pharmacodynamic New Zealand rabbit meningitis model at 12 mg/kg, im. In kind it is functional, organism-based. Details: dose 12 mg/kg.
Series [8] is described as follows: T>MIC in Acinetobacter baumannii infected C57BL/6 mouse pneumonia model at 20 mg/kg, im. The format is functional, organism-based. Details: dose 20 mg/kg.
Series [9] deals with Acinetobacter baumannii. The series can be described thus: Antimicrobial activity against Acinetobacter baumannii 940 after 24 hrs by time-kill assay. The format is functional, organism-based.
Series [10] has as its system Acinetobacter baumannii. The series can be described thus: Antibacterial activity against Acinetobacter baumannii 1327 infected in New Zealand rabbit meningitis model assessed as reduction in bacterial count in CSF at 25 mg/kg, im measured after 2 hrs of last dose (RVb = […]). The arrangement: dose 25 mg/kg. The format is functional, organism-based.
Series [11] has as its system Acinetobacter baumannii. The series can be described thus: Antimicrobial activity against Acinetobacter baumannii 1417. In kind it is functional.
In series [12] the test system is Oryctolagus cuniculus. The experiment in a line: Antiinflammatory activity in Acinetobacter baumannii 1327-infected New Zealand rabbit meningitis model assessed as in WBC count at 12 mg/kg, im after 6 hrs (RVb = 1 cells/ul). The format is functional, organism-based. Details: dose 12 mg/kg.
Series [13] relates to Acinetobacter baumannii. The experiment in a line: Antimicrobial activity against Acinetobacter baumannii 1417 after 24 hrs by time-kill assay. In kind it is functional, organism-based.
For series [14], the system named is Acinetobacter baumannii. The experiment in a line: Antimicrobial activity against Acinetobacter baumannii 506 after 24 hrs by time-kill assay. The format is functional, organism-based.
A short description of series [15]: Ratio of AUC to MIC for Acinetobacter baumannii 1327 in pharmacokinetic-pharmacodynamic C57BL/6 mouse pneumonia model at 12 mg/kg, im. In kind it is functional, organism-based. The arrangement: dose 12 mg/kg.
Series [16] deals with Acinetobacter baumannii. The series can be described thus: Antibacterial activity against Acinetobacter baumannii infected in C57BL/6 mouse model assessed as survival rate at total dose of 60 mg/kg/day, im administered as four divided doses measured after 72 hrs post last dose relative to control. The format is functional, organism-based.
Series [17] has as its system Acinetobacter baumannii. The experiment in a line: Antimicrobial activity against Acinetobacter baumannii 1327. In kind it is functional.
Series [18] concerns Acinetobacter baumannii. The experiment in a line: Antibacterial activity against Acinetobacter baumannii 1327 infected in New Zealand rabbit meningitis model assessed as reduction in bacterial count in CSF at 25 mg/kg, im measured after 4 hrs of last dose (RVb = 5.2). The format is functional, organism-based. The arrangement: dose 25 mg/kg.
The subject of series [19] is Oryctolagus cuniculus. The series can be described thus: Antiinflammatory activity in Acinetobacter baumannii 1327-infected New Zealand rabbit meningitis model assessed as brain edema at 12 mg/kg, im. In kind it is functional, organism-based. Details: dose 12 mg/kg.
Series [20] deals with Acinetobacter baumannii. The series can be described thus: Antimicrobial activity against Acinetobacter baumannii 1327 after 24 hrs by time-kill assay. The format is functional, organism-based.
The nature of series [21]: Ratio of Cmax to MIC for Acinetobacter baumannii 1327 in pharmacokinetic-pharmacodynamic C57BL/6 mouse pneumonia model at 20 mg/kg, im. The arrangement: dose 20 mg/kg. The format is functional, organism-based.
Series [22] relates to Acinetobacter baumannii. The experiment in a line: Antimicrobial activity against Acinetobacter baumannii 940. The format is functional.
The nature of series [23]: T>MIC in Acinetobacter baumannii infected New Zealand rabbit meningitis model at 12 mg/kg, im. The format is functional, organism-based. Details: dose 12 mg/kg.
In series [24] the test system is Acinetobacter baumannii. The series can be described thus: Antimicrobial activity against Acinetobacter baumannii 506. The format is functional.
Series [25] in a line: Ratio of Cmax to MIC for Acinetobacter baumannii 1327 in pharmacokinetic-pharmacodynamic New Zealand rabbit meningitis model at 12 mg/kg, im. The format is functional, organism-based. Details: dose 12 mg/kg.
The test system of series [26] is Acinetobacter baumannii. The series can be described thus: Antibacterial activity against Acinetobacter baumannii 1327 infected in New Zealand rabbit meningitis model assessed as reduction in bacterial count in CSF at 25 mg/kg, im measured after 6 hrs of last dose (RVb = 5.5). In kind it is functional, organism-based. Details: dose 25 mg/kg.
Series [27] has as its system Acinetobacter baumannii. The experiment in a line: Antimicrobial activity against Acinetobacter baumannii infected in C57BL/6 mouse model assessed as reduction in bacterial count per gram of lung at total dose of 60 mg/kg/day, im administered as four divided doses after 72 hrs (RVb = 10.6+/-0.27). In kind it is functional, organism-based.
Series [28] has as its system Acinetobacter baumannii. The series can be described thus: Antimicrobial activity against Acinetobacter baumannii infected in C57BL/6 mouse model assessed as reduction in bacterial count in blood at total dose of 60 mg/kg/day, im administered as four divided doses after 72 hrs. In kind it is functional, organism-based. Details: scale not given: the % may be the effect or the level left.

Series [29] concerns Acinetobacter baumannii. The series can be described thus: Antimicrobial activity against Acinetobacter baumannii infected in C57BL/6 mouse model assessed as reduction in bacterial count per gram of lung at total dose of 120 mg/kg/day, im administered as four divided doses after 72 hrs (RVb = 10.6+/-0.27). In kind it is functional, organism-based.
Series [30] in a line: T>MIC in Acinetobacter baumannii infected C57BL/6 mouse pneumonia model at 30 mg/kg, im. The format is functional. Conditions: route intramuscular.
Series [31] concerns Acinetobacter baumannii. The experiment in a line: Antibacterial activity against Acinetobacter baumannii infected in C57BL/6 mouse model assessed as survival rate at total dose of 120 mg/kg/day, im administered as four divided doses measured after 72 hrs post last dose relative to control. The format is functional. Conditions: route intramuscular.
Series [32] is described as follows: T>MIC in Acinetobacter baumannii infected New Zealand rabbit meningitis model at 120 mg/kg, im. The format is functional. Conditions: route intramuscular.
Series [33] in a line: Ratio of AUC to MIC for Acinetobacter baumannii 1327 in pharmacokinetic-pharmacodynamic C57BL/6 mouse pneumonia model at 30 mg/kg, im. The format is functional. Conditions: route intramuscular.
Series [34] relates to Acinetobacter baumannii. The experiment in a line: Antimicrobial activity against Acinetobacter baumannii clinical isolate. In kind it is functional.
Series [35] is described as follows: Ratio of Cmax to MIC for Acinetobacter baumannii 1327 in pharmacokinetic-pharmacodynamic C57BL/6 mouse pneumonia model at 30 mg/kg, im. In kind it is functional. Conditions: route intramuscular.
In series [36] the test system is Acinetobacter baumannii. The experiment in a line: Antimicrobial activity against Acinetobacter baumannii infected in C57BL/6 mouse model assessed as reduction in bacterial count in blood at total dose of 120 mg/kg/day, im administered as four divided doses after 72 hrs. In kind it is functional. Details: scale not given: the % may be the effect or the level left. Conditions: route intramuscular.

Series [37] is described as follows: Ratio of Cmax to MIC for Acinetobacter baumannii 1327 in pharmacokinetic-pharmacodynamic New Zealand rabbit meningitis model at 120 mg/kg, im. The format is functional. Conditions: route intramuscular.
Series [38] is described as follows: Ratio of AUC to MIC for Acinetobacter baumannii 1327 in pharmacokinetic-pharmacodynamic New Zealand rabbit meningitis model at 120 mg/kg, im. In kind it is functional. The note with it: route intramuscular.

In brackets after ≈: the same amount, converted by molar mass. Activity calls are given as the source filed them. The calls are words filed in the database; no cut-off is given here.

The source of these data is ChEMBL document CHEMBL1240392 (Antimicrob Agents Chemother, 2010).

Description for in vivo: Cmax in New Zealand rabbit meningitis model at 120 mg/kg, im

For the compound `C[C@@H](O)[C@H]1C(=O)N2C(C(=O)O)=C(SCCN=CN)C[C@H]12` [IMIPENEM ANHYDROUS], the values for the half-life in [1] and in [5] were 0.26 h and 1.74 h, respectively. The AUC in series [2] amounted to 50400 ng·h/mL; in series [3] it was 11300 ng·h/mL. Further, the highest concentration (Cmax) was found to be 23200 ng/mL in series [4] and 25400 ng/mL in the series “in vivo”.

Consider COLISTIN, for which the MIC against Acinetobacter baumannii [6], in the series on Acinetobacter baumannii [11], in the series on Acinetobacter baumannii [17], against Acinetobacter baumannii [22] and with Acinetobacter baumannii [24] was 0.5 µg/mL each time. Besides, the Ratio was 83.4 in [7], 52.8 in series [15], 54.8 in series [21] and 18 in [25]. In addition, the T>MIC in series [8] was 3.72 h; in series [23], 11.4 h. Further, the outcome in the series on Acinetobacter baumannii [9], in the series with Acinetobacter baumannii [13], in the series on Acinetobacter baumannii [14], in the series with Acinetobacter baumannii [20] and with Acinetobacter baumannii [27] was Active. In addition, the Activity in the series on Acinetobacter baumannii [10] amounted to 5.2 log10CFU/ml; in the series with Oryctolagus cuniculus [12], 4%; in the series on Acinetobacter baumannii [18], 4.7 log10CFU/ml; in the series on Oryctolagus cuniculus [19], 383 µL⁻¹; in the series with Acinetobacter baumannii [26] it was 4.3 log10CFU/ml; in the series on Acinetobacter baumannii [28] it was 73.3%. Further, the minimum bactericidal concentration (MBC) amounted to 1 µg/mL with Acinetobacter baumannii [11], 2 µg/mL in the series on Acinetobacter baumannii [17], 8 µg/mL against Acinetobacter baumannii [22] and 2 µg/mL in the series on Acinetobacter baumannii [24]. In addition, the Survival in the series with Acinetobacter baumannii [16] was 40%.

For `C[C@@H](O)[C@H]1C(=O)N2C(C(=O)O)=C(SCCNC=N)C[C@H]12` [IMIPENEM ANHYDROUS], the outcome with Acinetobacter baumannii [29], with Acinetobacter baumannii [9], in the series on Acinetobacter baumannii [13], with Acinetobacter baumannii [14] and in the series on Acinetobacter baumannii [20] was Active. In addition, the “T>MIC” value in series [30] and in [32] was 0 h each time. Also, the MBC in the series with Acinetobacter baumannii [11], in the series with Acinetobacter baumannii [17], in the series with Acinetobacter baumannii [22] and against Acinetobacter baumannii [24] was 32 µg/mL (≈ 107 µM) each time. In addition, the MIC was 32 µg/mL (≈ 107 µM) with Acinetobacter baumannii [11]; 32 µg/mL (≈ 107 µM) against Acinetobacter baumannii [17]; not below 64 µg/mL in the series on Acinetobacter baumannii [34]; 32 µg/mL (≈ 107 µM) against Acinetobacter baumannii [22]; 32 µg/mL (≈ 107 µM) with Acinetobacter baumannii [24]. For the same compound, in the series on Acinetobacter baumannii [31], the survival at 120 mg/kg/day is 28.6%. Moreover, the Ratio in series [33] is recorded as 0.35; in series [35], 0.73; in series [37], 0.79; in [38], 1.58. Besides, the Activity with Acinetobacter baumannii [36] worked out at 30.8%.
